As a reminder, the IC50 is the concentration needed to halve the response being measured. High values mean lower potency, low ones higher potency.

In the assay the target is Growth factor receptor-bound protein 2 (Homo sapiens, UniProt P62993). The assay can be described thus: Inhibition of Growth factor receptor bound protein 2 SH2 domain binding in ELISA. Background: ELISA stands for enzyme-linked immunosorbent assay.
Sequence of Growth factor receptor-bound protein 2 (P62993 whole entry, the tested form may be a part): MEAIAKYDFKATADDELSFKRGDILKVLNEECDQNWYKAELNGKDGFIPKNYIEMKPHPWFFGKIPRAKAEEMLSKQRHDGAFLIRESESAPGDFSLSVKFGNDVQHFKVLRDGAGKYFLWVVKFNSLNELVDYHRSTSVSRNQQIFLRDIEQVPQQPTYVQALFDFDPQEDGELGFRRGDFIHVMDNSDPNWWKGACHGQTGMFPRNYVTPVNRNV
The molecule `CC(=O)N[C@@H](Cc1ccc(CP(=O)(O)O)cc1)C(=O)NC1(C(=O)N[C@@H](CC(N)=O)C(=O)NCCCc2cccc3ccccc23)CCCCC1` gave an IC50 of 55 nM.

The molecule `NC(=O)C[C@H](NC(=O)C1(NC(=O)CCc2ccc(CP(=O)(O)O)cc2)CCCCC1)C(=O)NCCCc1cccc2ccccc12` registered an IC50 of 2000 nM.

With `NC(=O)C[C@@H]1NC(=O)C2(CCCCC2)NC(=O)C[C@@H](c2ccc(CP(=O)(O)O)cc2)/C=C/C[C@@H](Cc2cccc3ccccc23)CNC1=O`, the IC50 was 20 nM.

`NC(=O)C[C@H](NC(=O)C1(NC(=O)[C@H](Cc2ccc(CP(=O)(O)O)cc2)NC(=O)C(=O)O)CCCCC1)C(=O)NCCCc1cccc2ccccc12` gave an IC50 of 20 nM.

The values are drawn from ChEMBL document CHEMBL1134144, “Macrocyclization in the design of a conformationally constrained Grb2 SH2 domain inhibitor” (Bioorg Med Chem Lett, 2001).
